Like-named read-outs stand apart in the source and are kept apart here.
Tests used:
C. albicans [1] = experiment: Rate kill assay, plate count (Part A synergy; Part B pH and D-Mannitol effect); type: cell-based; conditions: D-Mannitol 0.73 wt % alone, both at pH 7.5 & 11
Description: The second set of experiments conducted, were “Rate Kill” assay. A rate kill assay can confirm whether combinations are synergistic or not. In these assays the formulations are first exposed to organisms for a desired time (for the current formulations readings were taken at 1, 3 and 24 hours). Then a sample of the organisms and formulation mixture is serially diluted and plated to assess the log reduction. The organisms are allowed to grow and are checked for growth/log reduction after 24 hrs. The log reduction values obtained for individual components are compared with the combinations.
The following solutions were prepared:
Each solution was then combined with C. albicans and the log reduction of the C. albicans was measured at 1, 3 and 24 hours.

P. aeruginosa [2] = experiment: as above; type: cell-based
Description: In these assays the formulations are first exposed to organisms for a desired time (for the current formulations readings were taken at 1, 3 and 24 hours). Then a sample of the organisms and formulation mixture is serially diluted and plated to assess the log reduction. The organisms are allowed to grow and are checked for growth/log reduction after 24 hrs. The log reduction values obtained for individual components are compared with the combinations.
Each solution was then combined with P. aeruginosa and the log reduction of the P. aeruginosa was measured at 1, 3 and 24 hours.

S. aureus [3] = experiment: as above; type: cell-based; conditions: D-Mannitol 0.73 wt % alone, both at pH 7.5 & 11
Description: The second set of experiments conducted, were “Rate Kill” assay. […] In these assays the formulations are first exposed to organisms for a desired time (for the current formulations readings were taken at 1, 3 and 24 hours). Then a sample of the organisms and formulation mixture is serially diluted and plated to assess the log reduction. The organisms are allowed to grow and are checked for growth/log reduction after 24 hrs. The log reduction values obtained for individual components are compared with the combinations.
Each solution was then combined with S. aureus and the log reduction of the S. aureus was measured at 1, 3 and 24 hours.

[4] = up to 3000 mg infused over 3 hours, daily, treatment of hyper-calcemia in humans; cited from earlier work
S. aureus [5] = experiment: Minimum inhibitory concentration (MIC) via macro-dilution method; conditions: for GROWTH: 24 hours, replicate columns; for MIC: S. aureus
P. aeruginosa [6] = experiment: Synergy evaluation, checkerboard titration, macro-dilution; type: cell-based
Description: (§1) The first set of experiments conducted, were screening experiments using checkerboard titration strategy to assess if the combinations fall within a range having an Fractional Inhibitory Concentration (FIC) index value of ≤1. The method used was a NCCLS macro-dilution procedure.
(§2) The Checkerboard Titration method was used to assess the interactions between TEDTA and Ethanol. […] During this experiment, TEDTA and Ethanol were tested in the combinations to assess if the combinations have a Fractional Inhibitory Concentration (FIC) index of ≤1. The following concentrations were tested:
(§3) Fractional Inhibitory Concentration (FIC) is defined as the MIC of the compound in combination divided by the MIC of the compound alone. If the FIC index is ≤0.5, the combination is interpreted to be synergistic; <1 but >0.5—as partially synergistic; =1 as additive; >1 but <4 as indifferent; and ≥4 as antagonistic. In order to calculate the FIC index the following calculations are performed for compounds A and B:
(§4) FIC-A=(MIC of A in combination)/(MIC of A alone)
(§5) FIC-B=(MIC of B in combination)/(MIC of B alone)
(§6) FIC-combination=FIC-A+FIC-B
(§7) The following concentrations were tested:
(§8) The MIC-TEDTA (MIC of TEDTA in combination with Ethanol), a minimum concentration of TEDTA, while in combination with Ethanol, that inhibited the growth of P. aeruginosa in MHB was found. In order to determine the MIC-Ethanol (MIC of Ethanol in combination with TEDTA), a minimum concentration of Ethanol, while in combination with TEDTA, that inhibited the growth of P. aeruginosa in MHB was found.

P. aeruginosa [7] = conditions: for GROWTH: 24 hours, replicate columns; for MIC: P. aeruginosa
Description: (§9) Experiments were conducted to assess the minimum inhibitory concentration (MIC) both for sodium salt of EDTA that comprises tetra-sodium EDTA and Ethanol. […] Clear solution indicates no growth.
(§10) The following solutions were prepared to evaluate the MIC values of sodium salt of EDTA that comprises tetra-sodium EDTA (TEDTA) and Ethanol.

C. albicans [8] = conditions: for MIC: C. albicans; for GROWTH: 24 hours, replicate columns
Description: as §9, §10

C. albicans [9] = experiment: Synergy evaluation, checkerboard titration, macro-dilution; type: cell-based
Description: as §1, §2, §3, §4, §5, §6, §7
as §8, with “C. albicans” for “P. aeruginosa”

S. aureus [10] = experiment: as above; type: cell-based
Description: as §1, §2, §3, §4, §5, §6
In order to determine the MIC-Ethanol (MIC of Ethanol in combination with TEDTA), a minimum concentration of Ethanol, while in combination with TEDTA, which inhibited the growth of S. aureus in MHB was found.

[11] = S. aureus in Mueller Hinton Broth
[12] = TEDTA alone, listed as Sodium Salt(s) of EDTA
[13] = TEDTA 0.06 WT % individual (0.25 MIC)
[14] = TEDTA 0.12 WT % individual (0.50 MIC)
[15] = TEDTA 0.24 WT % individual (1.00 MIC)

In the case of `OC[C@@H](O)[C@@H](O)[C@H](O)[C@H](O)CO` [D-Mannitol], the log reduction (C. albicans [1]) is reported as over 5 log, the log reduction (P. aeruginosa [2]; P. aeruginosa, D-Mannitol 0.73 wt % alone, both at pH 7.5 & 11) is reported as over 5 log and the “LOG REDUCTION AGAINST P. aeruginosa” value (P. aeruginosa [2]; footnote summary, D-mannitol alone, 0.73 wt %) is reported as “D-MANNITOL EXHIBITS > 5 LOG REDUCTION AGAINST P. aeruginosa”. The log reduction (S. aureus [3]) was over 4 log.
In the case of `O=C([O-])CN(CCN(CC(=O)[O-])CC(=O)O)CC(=O)O.[Na+].[Na+]` [EDTA disodium], the “tolerability of infused dose” value [4] is given as “well tolerated”.
For `CCO` [ETHANOL, Ethanol], the GROWTH (S. aureus [5]; ETHANOL 3.13 VOL %) was “+VE”, the GROWTH (S. aureus [5]; ETHANOL 6.25 VOL %) was “+VE” and the GROWTH (S. aureus [5]; ETHANOL 12.50 VOL %) was “+VE”. The GROWTH (S. aureus [5]; ETHANOL 25.00 VOL %) was “−VE”, the GROWTH (S. aureus [5]; ETHANOL 50.00 VOL %) was “−VE” and the MIC (S. aureus [5]; ethanol alone) was 25 VOL %. The GROWTH (P. aeruginosa [6]; ETHANOL 1.563 VOL % individual (0.25 MIC)) was “+VE”, the GROWTH (P. aeruginosa [6]; ETHANOL 3.125 VOL % individual (0.50 MIC)) was “+VE” and the GROWTH (P. aeruginosa [6]; ETHANOL 6.250 VOL % individual (1.00 MIC)) was “−VE”. The “MIC-Ethanol (MIC of Ethanol in combination with TEDTA)” value (P. aeruginosa [6]; P. aeruginosa in MHB) was 3.125 % (v/v), the FIC-Ethanol (P. aeruginosa [6]; P. aeruginosa, 3.125/6.25) was 0.5 and the GROWTH (P. aeruginosa [7]; ETHANOL 3.13 VOL %) was “+VE”. For the same compound, the GROWTH (P. aeruginosa [7]; ETHANOL 6.25 VOL %) was “−VE”, the GROWTH (P. aeruginosa [7]; ETHANOL 12.50 VOL %) was “−VE” and the GROWTH (P. aeruginosa [7]; ETHANOL 25.00 VOL %) was “−VE”. For the same compound, the GROWTH (P. aeruginosa [7]; ETHANOL 50.00 VOL %) was “−VE”, the MIC (P. aeruginosa [7]; ethanol alone) was 6.25 VOL % and the MIC (C. albicans [8]; ethanol alone) was 3.125 VOL %. For the same compound, the GROWTH (C. albicans [8]; ETHANOL 3.125 VOL %) was “−VE”, the GROWTH (C. albicans [8]; ETHANOL 6.25 VOL %) was “−VE” and the GROWTH (C. albicans [8]; ETHANOL 12.50 VOL %) was “−VE”. For the same compound, the GROWTH (C. albicans [8]; ETHANOL 25.00 VOL %) was “−VE”, the GROWTH (C. albicans [8]; ETHANOL 50.00 VOL %) was “−VE” and the “MIC-Ethanol (MIC of Ethanol in combination with TEDTA)” value (C. albicans [9]; C. albicans in MHB) was 0.781 % (v/v). The FIC-Ethanol (C. albicans [9]; C. albicans, 0.781/3.125) was 0.25, the GROWTH (C. albicans [9]; ETHANOL 0.781 VOL % individual (0.25 MIC)) was “+VE” and the GROWTH (C. albicans [9]; ETHANOL 1.563 VOL % individual (0.50 MIC)) was “+VE”. For the same compound, the GROWTH (C. albicans [9]; ETHANOL 3.125 VOL % individual (1.00 MIC)) was “−VE”, the GROWTH (S. aureus [10]; ETHANOL 6.250 VOL % individual (0.25 MIC)) was “+VE” and the GROWTH (S. aureus [10]; ETHANOL 12.500 VOL % individual (0.50 MIC)) was “+VE”. The GROWTH (S. aureus [10]; ETHANOL 25.000 VOL % individual (1.00 MIC)) was “−VE”, the “MIC-ETH (MIC of Ethanol in combination with TEDTA)” value (S. aureus [10]; [11]) was 6.25 % (w/v) and the FIC-Ethanol (S. aureus [10]; S. aureus, 6.25/25) was 0.25.
With `O=C([O-])CN(CCN(CC(=O)[O-])CC(=O)[O-])CC(=O)[O-].[Na+].[Na+].[Na+].[Na+]` [TEDTA, tetra-sodium EDTA] the MIC (S. aureus [5]; [12]) was 0.24 WT %, the GROWTH (S. aureus [5]; TEDTA 0.015 WT %) was “+VE” and the GROWTH (S. aureus [5]; TEDTA 0.030 WT %) was “+VE”. The GROWTH (S. aureus [5]; TEDTA 0.060 WT %) was “+VE”, the GROWTH (S. aureus [5]; TEDTA 0.120 WT %) was “+VE” and the GROWTH (S. aureus [5]; TEDTA 0.240 WT %) was “−VE”. The “MIC-TEDTA (MIC of TEDTA in combination with Ethanol)” value (shortened to “MIC-TEDTA”) (P. aeruginosa [6]; P. aeruginosa in MHB) was 0.12 % (w/v), the FIC-TEDTA (P. aeruginosa [6]; P. aeruginosa, 0.12/0.25) was 0.48 and the GROWTH (P. aeruginosa [6]; TEDTA 0.06 WT % individual (0.24 MIC)) was “+VE”. The GROWTH (P. aeruginosa [6]; TEDTA 0.12 WT % individual (0.48 MIC)) was “+VE”, the GROWTH (P. aeruginosa [6]; TEDTA 0.24 WT % individual (0.96 MIC)) was “−VE” and the MIC (P. aeruginosa [7]; [12]) was 0.24 WT %. The GROWTH (P. aeruginosa [7]; TEDTA 0.125 WT %) was “+VE”, the GROWTH (P. aeruginosa [7]; TEDTA 0.250 WT %) was “−VE” and the GROWTH (P. aeruginosa [7]; TEDTA 0.500 WT %) was “−VE”. The GROWTH (P. aeruginosa [7]; TEDTA 1.000 WT %) was “−VE”, the GROWTH (P. aeruginosa [7]; TEDTA 1.500 WT %) was “−VE” and the MIC (C. albicans [8]; [12]) was 0.24 WT %. The GROWTH (C. albicans [8]; TEDTA 0.015 WT %) was “+VE”, the GROWTH (C. albicans [8]; TEDTA 0.030 WT %) was “+VE” and the GROWTH (C. albicans [8]; TEDTA 0.060 WT %) was “+VE”. For the same compound, the GROWTH (C. albicans [8]; TEDTA 0.120 WT %) was “+VE”, the GROWTH (C. albicans [8]; TEDTA 0.240 WT %) was “−VE” and the “MIC-TEDTA” value (C. albicans [9]; C. albicans in MHB) was 0.06 % (w/v). For the same compound, the FIC-TEDTA (C. albicans [9]; C. albicans, 0.06/0.24) was 0.25, the GROWTH (C. albicans [9]; [13]) was “−VE” and the GROWTH (C. albicans [9]; [14]) was “−VE”. The GROWTH (C. albicans [9]; [15]) was “−VE”, the “MIC-TEDTA” value (S. aureus [10]; [11]) was 0.06 % (w/v) and the FIC-TEDTA (S. aureus [10]; S. aureus, 0.06/0.24) was 0.25. For the same compound, the GROWTH (S. aureus [10]; [13]) was “+VE”, the GROWTH (S. aureus [10]; [14]) was “+VE” and the GROWTH (S. aureus [10]; [15]) was “−VE”.
